# Assay results from PubChem BioAssay (NCI).
#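 Cultured in 96-well plates, cells were exposed to test compound for 48 hours across five concentrations. GI50 = concentration required for 50% inhibition of growth. TGI marks complete inhibition of growth.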
# Columns and labels:
# Experiment in all cases: NCI anticancer screen, dose series, 48 h
# CAKI-1 renal = system: CAKI-1 renal
# MOLT-4 leukemia = system: MOLT-4 leukemia
# OVCAR-8 ovarian = system: OVCAR-8 ovarian
# TK-10 renal = system: TK-10 renal
# DU-145 prostate = system: DU-145 prostate
# SN12C renal = system: SN12C renal
# UACC-257 melanoma = system: UACC-257 melanoma
# SR leukemia = system: SR leukemia
# CCRF-CEM leukemia = system: CCRF-CEM leukemia
# COLO 205 colon = system: COLO 205 colon
# NCI/ADR-RES ovarian = system: NCI/ADR-RES ovarian
# LOX IMVI melanoma = system: LOX IMVI melanoma
# MDA-MB-231 breast = system: MDA-MB-231 breast
# M14 melanoma = system: M14 melanoma
# 786-0 renal = system: 786-0 renal
# UO-31 renal = system: UO-31 renal
# HOP-62 NSCLC = system: HOP-62 NSCLC
# NCI-H460 lung = system: NCI-H460 lung
# U251 CNS = system: U251 CNS
# OVCAR-3 ovarian = system: OVCAR-3 ovarian
# MALME-3M melanoma = system: MALME-3M melanoma
# SK-MEL-28 melanoma = system: SK-MEL-28 melanoma
# HS 578T breast = system: HS 578T breast
# SK-OV-3 ovarian = system: SK-OV-3 ovarian
# HCT-116 colon = system: HCT-116 colon
# HT29 colon = system: HT29 colon
# OVCAR-4 ovarian = system: OVCAR-4 ovarian
# HL-60(TB) leukemia = system: HL-60(TB) leukemia
# HOP-92 NSCLC = system: HOP-92 NSCLC
# MDA-MB-435 = system: MDA-MB-435
# UACC-62 melanoma = system: UACC-62 melanoma
# SNB-75 CNS = system: SNB-75 CNS
# BT-549 breast = system: BT-549 breast
# A549 NSCLC = system: A549 NSCLC
# A498 renal = system: A498 renal
# MCF7 breast = system: MCF7 breast
# KM12 colon = system: KM12 colon
# RXF 393 renal = system: RXF 393 renal
# SF-295 CNS = system: SF-295 CNS
# T-47D breast = system: T-47D breast
# ACHN renal = system: ACHN renal
# SK-MEL-2 melanoma = system: SK-MEL-2 melanoma
# PC-3 prostate = system: PC-3 prostate
# SK-MEL-5 melanoma = system: SK-MEL-5 melanoma
# NCI-H522 lung = system: NCI-H522 lung
# SW-620 colon = system: SW-620 colon
# SF-268 CNS = system: SF-268 CNS
# EKVX NSCLC = system: EKVX NSCLC
# NCI-H23 lung = system: NCI-H23 lung
# HCT-15 colon = system: HCT-15 colon
# OVCAR-5 ovarian = system: OVCAR-5 ovarian
# NCI-H226 lung = system: NCI-H226 lung
# IGROV1 ovarian = system: IGROV1 ovarian
# HCC-2998 colon = system: HCC-2998 colon
# SF-539 CNS = system: SF-539 CNS
# K-562 leukemia = system: K-562 leukemia
# SNB-19 CNS = system: SNB-19 CNS
# RPMI-8226 leukemia = system: RPMI-8226 leukemia
smiles,measurement,setting,value
Cn1cc(-c2nc(N)nnc2-c2c[nH]c3ccccc23)c2cc(Br)ccc21,GI50,CAKI-1 renal,0.536 µM
same,TGI,CAKI-1 renal,13.6 µM
same,GI50,MOLT-4 leukemia,0.684 µM
same,TGI,MOLT-4 leukemia,4.05 µM
same,GI50,OVCAR-8 ovarian,3.62 µM
same,TGI,OVCAR-8 ovarian,69.5 µM
same,GI50,TK-10 renal,6.01 µM
same,TGI,TK-10 renal,34.3 µM
same,GI50,DU-145 prostate,3.26 µM
same,TGI,DU-145 prostate,14.8 µM
same,GI50,SN12C renal,5.17 µM
same,TGI,SN12C renal,47.9 µM
same,GI50,UACC-257 melanoma,7.26 µM
same,TGI,UACC-257 melanoma,22.4 µM
same,GI50,SR leukemia,0.312 µM
same,TGI,SR leukemia,2.43 µM
same,GI50,CCRF-CEM leukemia,2.21 µM
same,TGI,CCRF-CEM leukemia,13.5 µM
same,GI50,COLO 205 colon,0.877 µM
same,TGI,COLO 205 colon,7.13 µM
same,GI50,NCI/ADR-RES ovarian,1.67 µM
same,TGI,NCI/ADR-RES ovarian,18.6 µM
same,GI50,LOX IMVI melanoma,1.37 µM
same,TGI,LOX IMVI melanoma,27.4 µM
same,GI50,MDA-MB-231 breast,4.49 µM
same,TGI,MDA-MB-231 breast,66.1 µM
same,GI50,M14 melanoma,0.768 µM
same,TGI,M14 melanoma,8.45 µM
same,GI50,786-0 renal,2.65 µM
same,TGI,786-0 renal,17.6 µM
same,GI50,UO-31 renal,1.99 µM
same,TGI,UO-31 renal,20.8 µM
same,GI50,HOP-62 NSCLC,2.52 µM
same,TGI,HOP-62 NSCLC,19.9 µM
same,GI50,NCI-H460 lung,0.551 µM
same,TGI,NCI-H460 lung,12.2 µM
same,GI50,U251 CNS,2.26 µM
same,TGI,U251 CNS,15.2 µM
same,GI50,OVCAR-3 ovarian,0.507 µM
same,TGI,OVCAR-3 ovarian,4.94 µM
same,GI50,MALME-3M melanoma,6.12 µM
same,TGI,MALME-3M melanoma,32.2 µM
same,GI50,SK-MEL-28 melanoma,6.98 µM
same,TGI,SK-MEL-28 melanoma,22.5 µM
same,GI50,HS 578T breast,1.89 µM
same,TGI,HS 578T breast,9.3 µM
same,GI50,SK-OV-3 ovarian,3.02 µM
same,TGI,SK-OV-3 ovarian,18.7 µM
same,GI50,HCT-116 colon,0.518 µM
same,TGI,HCT-116 colon,11.9 µM
same,GI50,HT29 colon,0.483 µM
same,TGI,HT29 colon,5.38 µM
same,GI50,OVCAR-4 ovarian,3.72 µM
same,TGI,OVCAR-4 ovarian,21.8 µM
same,GI50,HL-60(TB) leukemia,0.451 µM
same,TGI,HL-60(TB) leukemia,7.69 µM
same,GI50,HOP-92 NSCLC,2.62 µM
same,TGI,HOP-92 NSCLC,22.4 µM
same,GI50,MDA-MB-435,0.312 µM
same,TGI,MDA-MB-435,11.8 µM
same,GI50,UACC-62 melanoma,0.988 µM
same,TGI,UACC-62 melanoma,18.9 µM
same,GI50,SNB-75 CNS,0.46 µM
same,TGI,SNB-75 CNS,4.54 µM
same,GI50,BT-549 breast,1.53 µM
same,TGI,BT-549 breast,14.5 µM
same,GI50,A549 NSCLC,1.55 µM
same,TGI,A549 NSCLC,39.7 µM
same,GI50,A498 renal,1.19 µM
same,TGI,A498 renal,5.7 µM
same,GI50,MCF7 breast,0.48 µM
same,TGI,MCF7 breast,16.4 µM
same,GI50,KM12 colon,0.591 µM
same,TGI,KM12 colon,11.9 µM
same,GI50,RXF 393 renal,1.17 µM
same,TGI,RXF 393 renal,4.4 µM
same,GI50,SF-295 CNS,0.922 µM
same,TGI,SF-295 CNS,11.4 µM
same,GI50,T-47D breast,0.783 µM
same,TGI,T-47D breast,24.4 µM
same,GI50,ACHN renal,3.57 µM
same,TGI,ACHN renal,20 µM
same,GI50,SK-MEL-2 melanoma,1.9 µM
same,TGI,SK-MEL-2 melanoma,13.6 µM
same,GI50,PC-3 prostate,2.12 µM
same,TGI,PC-3 prostate,64 µM
same,GI50,SK-MEL-5 melanoma,1.58 µM
same,TGI,SK-MEL-5 melanoma,9.96 µM
same,GI50,NCI-H522 lung,0.646 µM
same,TGI,NCI-H522 lung,8.03 µM
same,GI50,SW-620 colon,0.67 µM
same,TGI,SW-620 colon,15.9 µM
same,GI50,SF-268 CNS,2.51 µM
same,TGI,SF-268 CNS,18.6 µM
same,GI50,EKVX NSCLC,2.62 µM
same,TGI,EKVX NSCLC,23.4 µM
same,GI50,NCI-H23 lung,2.21 µM
same,TGI,NCI-H23 lung,17.2 µM
same,GI50,HCT-15 colon,0.552 µM
same,TGI,HCT-15 colon,16.4 µM
same,GI50,OVCAR-5 ovarian,5.9 µM
same,TGI,OVCAR-5 ovarian,25.5 µM
same,GI50,NCI-H226 lung,2.39 µM
same,TGI,NCI-H226 lung,15.9 µM
same,GI50,IGROV1 ovarian,0.9 µM
same,TGI,IGROV1 ovarian,24.2 µM
same,GI50,HCC-2998 colon,2.7 µM
same,TGI,HCC-2998 colon,13.7 µM
same,GI50,SF-539 CNS,2.17 µM
same,TGI,SF-539 CNS,6.88 µM
same,GI50,K-562 leukemia,0.393 µM
same,TGI,K-562 leukemia,13.2 µM
same,GI50,SNB-19 CNS,2.05 µM
same,TGI,SNB-19 CNS,22.7 µM
same,GI50,RPMI-8226 leukemia,2.35 µM
same,TGI,RPMI-8226 leukemia,46.2 µM
